Measurements published in patent EP3124080A1, “SEMISYNTHETIC BILE ACIDS FOR INJECTION LIPOLYSIS” (Merz Pharma GmbH & Co. KGaA, priority 2015, dated 2017).
Read-outs that look alike come from different tables or passages of the source. Marks after values point to notes of the source that are not given here.

Key:
[1] = tested on: in vitro matured adipocytes; experiment: alamar blue cell viability assay (adipocytolytic potential), mature adipocytes; format: cell-based; conditions: for Viability Adipocytes (%): 48h incubation, vehicle = 100%
Protocol: (§1) The following experimental setup was used for determination of adipocytolytic potential of test compounds with preadipocytes and mature adipocytes: • Preadipocytes (PromoCell) were seeded in Preadipocyte Growth Medium at 45000 cells/ cm^2 to allow attachment overnight. Cells were cultured at 37°C and 5% CO2 untill postconfluence. Differentiation was started with incubation of cells in Differentiation Medium for 7 days followed by incubation in Nutrition medium for 14 further days. After differentiation process, mature adipocytes were incubated with indicated concentration of indicated triterpenes.
(§2) 6 replicates of each test compound concentration were tested. Each plate included a negative control and a compound interference control (for all concentrations, duplicates).
(§3) Cell viability as surrogate for adipocytolytic potential of compounds were analysed by alamar blue assay. In brief, 20µl of a 0,1mg/ml Resazurin sodium salt (Sigma; R7017-1G) solution was added to each well 48 hrs after compound incubation. The cells were incubated for 90 min at 37°C and 5% CO2 and the resulting conversion of resazurin to resorufin was measured by a fluorescence plate reader at 590 nm. Vehicle controls were set as 100%. IC50-values were analysed using SigmaBlotV13.

[2] = tested on: Preadipocytes (PromoCell); experiment: alamar blue cell viability assay (adipocytolytic potential), preadipocytes; format: cell-based; conditions: for Viability Preadipocytes (%): 48h incubation, vehicle = 100%; for IC50: viability, 48 hrs, read-out: IC50 [µM] Pre-ad ipocytes
Protocol: as §1, §2, §3

adipocytes = experiment: Caspase-Glo 3/7 Assay, apoptosis induction in adipocytes; format: cell-based; conditions: vehicle basal apoptosis = 100%
Protocol: as §1
For analysing the potential of compounds to induce apoptosis the Caspase-Glo® 3/7 Assay was used (Promega) as recommended by the supplier. In brief, 100µl of Caspase Reagent was added to 100µl cell culture medium and cells were incubated at 37°C and 5% CO2 for 1 hr. Luminescence signal was measured with a SynergyH4 plate reader. Vehicle controls were used to define basal apoptosis as 100%. Table 1 Impact on viability of in vitro matured adipocytes after 48h incubation with indicated compound in increasing concentration

inguinal fat pad [3] = experiment: fat histology analysis of injected inguinal fat pads (H&E); format: in vivo, Male Sprague-Dawley rats
Protocol: (§4) After shaving the skin the inguinal area, rats, were injected into the inguinal fat pads (3 injection sites per fat pad for every rat, 100ul/per site). For all groups, 6 rats were injected with sterile vehicle, or obeticholic acid on day 1, day 7 and day 14 in the right pad and left fat pad was intact. For the other 6 rats were injected with sterile vehicle obeticholic acid on day 1, day 7 and day 14 in the left pad and right pad was intact.
Inguinal fat embedded in paraffin were cross-sectioned (5 µm each). For each mouse, a serial section at intervals of 40 to 50 µm was made and one section was collected for every 10 sections. In total, five sections per animal were used for Hematoxylin and eosin (H&E) stain and adipocyte number and size analysis. Histologic examination was performed by well-trained pathologists in a double-blind fashion. Three factors were examined in each sample: the quantity of normal fat, fat necrosis and inflammatory activity. […]. H&E staining was used in evaluation of the inflammatory status.

inguinal fat pad [4] = experiment: injection into inguinal fat pads of rats: fat pad weight, volume, fat content; format: in vivo, Male Sprague-Dawley rats; conditions: 3 sites 100 µl each, days 1, 7, 14, analysis day 35, mean ±SEM
Protocol: All work was done under sterile extractor hood/luminar airflow working environment. Final solution were filtered through sterile 0.22um Millipore PES membrane syringer filter unit. […].
To 0.4099g Na3PO4 water for injection was added to a final weight of 50 g.
For the highest (2%) concentration, 100 mg of obeticholic acid were added with 2.75 ml of above solution, 112,5 mg of glycerol and finally 2.038 ml of sterile water to make 5 ml solution. Lower concentrations were adjusted accordingly.
Male Sprague-Dawley rats (200-300g of body weight) were used for this study (Vital River Laboratories Animal Ltd., China) and were housed in a temperature (22 ± 3 °C) and humidity (55 ± 15 %) controlled AAALAC accredited facility. Animals were provided with food (Keaoxieli certified Rodent Diet) and sterile water ad libitum. The animals were on a 12-hour light/dark (6:00 am /6:00 pm) cycle and acclimated for 1 week prior to the study. Rats were housed in a plexiglas cage (3 rats per cage).
as §4
Isolated inguinal fat pad volume was measured using YLS - 7 b digit volume measuring instrument (Jinan YiYan Technology Development co., LTD, Shandong, P.R. China) according to manufacturer instructions.
Rats were euthanized and the abdomen was cut and opened. Inguinal fat pads were exposed and a photo was taken. Then inguinal fat pads were isolated, and a gross photo was taken again followed by weighting of the pad. Total fat lipids were extracted from the inguinal fat using a protocol adapted from Folch et al. Fresh fat tissue (1g) was homogenized in 20ml of a 2:1 chloroform-methanol solution. The homogenate was filtered using a fat-free filter paper and funneled into a pre-weighted 50-ml glass vial. Then the previous vial and funnel were washed with an additional 5ml of a 2:1 chloroform-methanol solution. Afterwards 2.5 ml of 0.9% NaCl was added. The lipids were separated by centrifugation at 1,800 g, 10°C for 5 min; the aqueous layer was discarded and the tube was flushed with nitrogen until the lipid pellet was dry. The tube containing the lipid pellet was reweighed, and total lipid extracted per gram of total tissue was calculated.
Results were expressed as mean ± SEM. Statistical analysis was performed using ANOVA on ranks, followed if significant by Mann-Whitney test. The difference was considered significant when p< 0.05.
. Herein, the values representmean ±SEM. *-P<0.05 vs control. Table 5 Effect of obeticholic acid on inguinal fat pad in rats.

[5] = Adipocyte, viability, 48 hrs, read-out: IC50 [µM] Adipocytes
[6] = 48 h, read-out: Viability Preadipocytes (%)

## C[C@H](CCC(=O)O)[C@H]1CC[C@H]2[C@@H]3CC[C@@H]4C[C@H](O)CC[C@]4(C)[C@H]3C[C@H](O)[C@]12C [Deoxycholic acid]
[1]; 10 µM
  Viability Adipocytes (%): 106.98%
[1]; 50 µM
  Viability Adipocytes (%): 95.61%
[1]; 100 µM
  Viability Adipocytes (%): 94.30%
[1]; 300 µM
  Viability Adipocytes (%): 22.06%
[1]; 600 µM
  Viability Adipocytes (%): 0.11%
[1]; Adipocyte, read-out: concentration required to achieve 50%-decrease in vitality of adipocytes
  IC50: 200 µM
[1]; [5]
  IC50: 244 µM
[2]; 10 µM
  Viability Preadipocytes (%): 96.22%
[2]; 50 µM
  Viability Preadipocytes (%): 95.61%
[2]; 100 µM
  Viability Preadipocytes (%): 98.03%
[2]; 300 µM
  Viability Preadipocytes (%): 26.08%
[2]; 600 µM
  Viability Preadipocytes (%): 0.00%
[2]
  IC50: 232 µM

## CC[C@H]1[C@@H](O)[C@@H]2[C@H](CC[C@]3(C)[C@@H]([C@H](C)CCC(=O)O)CC[C@@H]23)[C@@]2(C)CC[C@@H](O)C[C@@H]12 [Obeticholic acid, (3α,5β,6α,7α)-6-ethyl-3,7-dihydroxycholan-24-oic acid]
adipocytes; 50 µM, 6 hrs
  Apoptosis Adipocytes (%): 132.28%
adipocytes; 50 µM, 24 hrs
  Apoptosis Adipocytes (%): 146.44%
adipocytes; 100 µM, 6 hrs
  Apoptosis Adipocytes (%): 503.28%
adipocytes; 100 µM, 24 hrs
  Apoptosis Adipocytes (%): 180.88%
adipocytes; 300 µM, 6 hrs
  Apoptosis Adipocytes (%): 1164.30%
adipocytes; 300 µM, 24 hrs
  Apoptosis Adipocytes (%): 779.64%
Inguinal fat pad [3]; 0.5 % solution injected into inguinal fat pad
  inflammation (histology): not
Inguinal fat pad [3]; 0.5, 1 and 2 % solutions
  fat necrosis as measured by histology: not affected
  normal fat content as measured by histology: not affected
Inguinal fat pad [3]; 1 % solution injected into inguinal fat pad
  inflammation (histology): not
Inguinal fat pad [3]; 2 % solution injected into inguinal fat pad
  inflammation (histology): increase in inflammation
Inguinal fat pad [4]; 0.5 % solution
  Inguinal fat pad fat content difference to contralateral (sham) pad (g) N=8: -0.169±0.02* g
  Inguinal fat pad weight difference to contralateral (sham) pad (g) N=12: -0.192±0.04* g
Inguinal fat pad [4]; 1 % solution
  Inguinal fat pad fat content difference to contralateral (sham) pad (g) N=8: -0.387±0.04* g
  Inguinal fat pad weight difference to contralateral (sham) pad (g) N=12: -0.352±0.03* g
Inguinal fat pad [4]; 2 % solution
  Inguinal fat pad fat content difference to contralateral (sham) pad (g) N=8: -0.523±0.05* g
  Inguinal fat pad weight difference to contralateral (sham) pad (g) N=12: -0.526±0.07* g
[1]; 100 µM
  Viability Adipocytes (%): 49.17%
[1]; Adipocyte, 48 h, read-out: Viability Adipocytes (%), 10 µM, 48h incubation, vehicle = 100%
  viability at 10 µM: 101%
[1]; Adipocyte, 48 h, read-out: Viability Adipocytes (%), 50 µM, 48h incubation, vehicle = 100%
  viability at 50 µM: 89.6%
[1]; Adipocyte, 48 h, read-out: Viability Adipocytes (%), 100 µM, 48h incubation, vehicle = 100%
  viability at 100 µM: ~50%
[1]; Adipocyte, 48 h, read-out: Viability Adipocytes (%), 300 µM, 48h incubation, vehicle = 100%
  viability at 300 µM: 0.29%
[1]; [5]
  IC50: 93.9 µM
[2]; [6]
  viability at 10 µM: 93%
  viability at 50 µM: 83.1%
  viability at 100 µM: 21.4%
  viability at 300 µM: 0.41%
[2]
  IC50: 87.2 µM
